Test results taken from ChEMBL document CHEMBL1136038, “Parallel solution- and solid-phase synthesis of spiropyrrolo-pyrroles as novel neurokinin receptor ligands” (Bioorg Med Chem Lett, 2002).

Target: Substance-P receptor (Homo sapiens, UniProt P25103)
Test: Affinity for human Tachykinin receptor 1 expressed in CHO cells
Type: cell-based

Substance-P receptor, sequence (P25103 whole entry): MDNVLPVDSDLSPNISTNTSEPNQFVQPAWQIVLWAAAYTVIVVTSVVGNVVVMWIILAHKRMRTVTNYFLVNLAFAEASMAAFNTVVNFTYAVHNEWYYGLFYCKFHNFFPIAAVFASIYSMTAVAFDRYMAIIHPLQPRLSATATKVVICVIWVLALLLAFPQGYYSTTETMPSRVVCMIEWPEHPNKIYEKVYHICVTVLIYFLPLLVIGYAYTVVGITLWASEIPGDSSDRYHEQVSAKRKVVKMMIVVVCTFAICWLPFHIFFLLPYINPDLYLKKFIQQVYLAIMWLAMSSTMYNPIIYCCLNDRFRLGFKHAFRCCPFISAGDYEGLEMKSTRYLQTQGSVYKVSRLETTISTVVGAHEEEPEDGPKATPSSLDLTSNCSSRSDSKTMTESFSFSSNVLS

**Q.** With `O=C(c1cc(C(F)(F)F)cc(C(F)(F)F)c1)N1CCC2(CC1)C1C(=O)N(c3ccccc3)C(=O)C1CN2C(=O)CN1CCOCC1` (configuration not stated) as the compound, how does the Ki read?
**A.** 8.32 nM

**Q.** Which Ki does the source give for `O=C1C2CN(C(=O)COCc3ccccc3)C3(CCNCC3)C2C(=O)N1Cc1cc(C(F)(F)F)cc(C(F)(F)F)c1` (configuration not stated) here?
**A.** 2290 nM

**Q.** With `O=C1COc2ccc(S(=O)(=O)N3CCC4(CC3)C3C(=O)N(c5ccccc5)C(=O)C3CN4C(=O)c3cc(C(F)(F)F)cc(C(F)(F)F)c3)cc2N1` (configuration not stated) as the compound, how does the Ki read?
**A.** 30.9 nM

**Q.** Which Ki does the source give for `CS(=O)(=O)N1CC2C(=O)N(c3ccccc3)C(=O)C2C12CCN(C(=O)c1cc(C(F)(F)F)cc(C(F)(F)F)c1)CC2` (configuration not stated) here?
**A.** 5.13 nM

**Q.** `COc1ccc(OC)c(S(=O)(=O)N2CCC3(CC2)C2C(=O)N(c4ccccc4)C(=O)C2CN3C(=O)c2cc(C(F)(F)F)cc(C(F)(F)F)c2)c1` (configuration not stated) was tested. Which Ki did it give?
**A.** 30.2 nM

**Q.** With `CN1C(=O)C2CN(Cc3cccs3)C3(CCN(C(=O)c4cc(C(F)(F)F)cc(C(F)(F)F)c4)CC3)C2C1=O` (configuration not stated) as the compound, how does the Ki read?
**A.** 513 nM

**Q.** For `CC(C)(C)C(=O)N1CCC2(CC1)C1C(=O)N(c3ccccc3)C(=O)C1CN2C(=O)c1cc(C(F)(F)F)cc(C(F)(F)F)c1` (configuration not stated), which Ki is on record?
**A.** 302 nM

**Q.** With `COc1ccccc1C(=O)N1CC2C(=O)N(C)C(=O)C2C12CCN(C(=O)c1cc(C(F)(F)F)cc(C(F)(F)F)c1)CC2` (configuration not stated) as the compound, how does the Ki read?
**A.** 794 nM

**Q.** For `CN1C(=O)C2CN(S(=O)(=O)c3ccc4ccccc4c3)C3(CCN(C(=O)c4cc(C(F)(F)F)cc(C(F)(F)F)c4)CC3)C2C1=O` (configuration not stated), which Ki is on record?
**A.** 38.9 nM

**Q.** For `CS(=O)(=O)N1CCC2(CC1)C1C(=O)N(Cc3cc(C(F)(F)F)cc(C(F)(F)F)c3)C(=O)C1CN2C(=O)c1ccc2ccccc2c1` (configuration not stated), which Ki is on record?
**A.** 263 nM

**Q.** For `O=C1C2CN(C(=O)c3sc4ccccc4c3Cl)C3(CCNCC3)C2C(=O)N1Cc1cc(C(F)(F)F)cc(C(F)(F)F)c1` (configuration not stated), which Ki is on record?
**A.** 501 nM

**Q.** For `Cc1noc(C)c1S(=O)(=O)N1CCC2(CC1)C1C(=O)N(c3ccccc3)C(=O)C1CN2C(=O)c1cc(C(F)(F)F)cc(C(F)(F)F)c1` (configuration not stated), which Ki is on record?
**A.** 75.9 nM
